# Columns and labels:
# spleen cells = experiment: Lymphocyte transformation induced by ConA; assay type: in vivo, NIH mice; settings: 0.02 g/kg
# Experimental: 80 NIH mice, half male and half female, were divided into 8 groups randomly and drenched with the correspondent medicines once a day for 10 days. 24 hours after the last administration, all the mice were killed to sample the spleen cells aseptically. Then the samples were washed by the Hank's liquor for 2 times and nonserum RPMI1640 liquor for 1 time. Then the clear samples were adjusted to the 2×10^6/ml cell suspension with 5% FCS-RPMI liquor. The 96-hole flat bottom cell culturing batten was added with the cell suspension on the quantity of 100 μl/hole. Each sample was cultured with 3 copies. 2 holes were added in 2 ng ConA each as the stimulating reagent. The other hole was not added in the ConA and kept as the control hole. The batten was cultured in 5% CO2 at 37° C. for 72 hours. 14 hours before the end of the culture, each hole was added in 3H-TdR 0.1μ Ci. The cells were harvested by the multihead cell harvesting instrument and measured the cpm value. The average value was adopted as the sample's cpm value. The average value and the stimulating index of the different groups were compared directly. The stimulating index was calculated as following: […]
# IL-1 = IL-1 of abdominal macrophages from dosed mice; assay type: in vivo, NIH mice; settings: 0.02 g/kg, 10 days
# Experimental: 70 NIH mice, 18-22 g weight, half male and half female, were divided into 7 groups at random. All the groups were drenched with the correspondent medicines (fengshiping and the other medicines). The medicines were drenched once a day for 10 days. 24 hours after the last administration, all the mice were killed and sampled the macrophage and spleen cells from the abdominal carvity. The IL-1 and IL-6 in the samples were measured.
# The macrophages in the abdominal carvity were sampled in the asepsis condition. Then the samples were washed by the Hank's liquor for 2 times and nonserum RPMI1640 liquor for 1 time. Then the clear samples were adjusted to the 4×10^6/ml cell suspension with 5% FCS-RPMI liquor. 1 ml of the suspension was added to the test tube and cultured at 37° C. for 1 hour. The unadherent cells were abandoned. Then the cultured liquor was added with 5% FCS-RPMI 1640 and LPS (10 ng/ml) to culture. The cells cultured in 5% CO2 at 37° C. for 72 hours. During the course, the cultured cells were freezed and thawed for several times. The final product was saved at 4° C. The C57 mice were sampled the thymus in the asepsis condition. […]
# 100 μl supernate separated from the frost thawing liquor and 100 μl cell suspension of thymus were added into the 96-hole flat bottom cell-culture batten. […] The cultured cells were collected with multihead cell-harvesting apparatus and measured the cpm value. […]
# NK cell = NK cell activity (Yack-1 target cells); assay type: in vivo, ICR mice; settings: 0.02 g/kg
# Experimental: The experiment was same to 5.1. 24 hours after the last administration, the spleen cell samples were made into the 2×10^8/ml cell suspension with 5% FCS-RPIM1640. The quantity of CD4, CD8, NK cells and the rate CD4/CD8 were measured on the usural method.
# The preparation of the EC cell: The spleen cells were sampled in the asepsis condition. Then the samples were washed by the Hank's liquor for 2 times and nonserum RPMI1640 liquor for 1 time. Then the clear samples were adjusted to the 2×10^8/ml cell suspension with 5% FCS-RPMI liquor. This cell suspension was used as the EC.
# The preparation of the TC cell: The Yack-1 cells, which were sensitive to the mouse NK cell and on the logarithmic growth phase, were adjusted to the 4×10^4/ml cell suspension. It was the TC.
# Measurement: EC and TC, 100 μl each were added in the 96-hole flat bottom cell culturing batten. Each sample was cultured with 3 copies and set 2 control samples: EC and TC. […] The samples were cultured in 5% CO2 at 37° C. for 24 hours. 6 hours before the end of the culturing, the samples were centrifuged and sucked out 110 μl supernate each hole. And then the holes were added in the MTT 10 μl. After put at 37° C. for 3 hours, the mixed samples were measured the OD value at the wavelength of 570 nm and 630 nm. The OD of each hole=OD570 nm-OD630 nm.
# IL-2 = IL-2 level of cultured cells from dosed mice (CTLL cells); assay type: in vivo, ICR mice; settings: 0.02 g/kg, 10 days
# Experimental: 60 ICR mice, 1822 g, half male and half female, were divided into 6 groups at random. Each group was drenched of the correspondent medicines including the different dosages of Fengshiping and the other medicines. The medicines were administrated once a day for 10 days. 24 hours after the last administration, the mice were sampled the macrophage and spleen cells from the abdominal cavity in the aseptic condition. The samples were washed with Hank's liquor for 2 times and non-serum RPIM 1640 liquor for 1 time. Then the washed samples were diluted to the suspension with the 5% FCS-RPMI 1640 at the concentration of 2×10^8/ml. Then the suspensions were added with 10 ng/ml LPS or the 10 ng/ml ConA and cultured in the 5% CO2 condition for 48 hours at 37° C. Then the cultured suspension were measured the TNF α and IL-2 levels on the usual methods.
# The CTLL cells which was on the logarithmic growth phase and whose growth depends on the IL-2, were adjusted to the suspension at the concentration of 1×10^5/ml with the 5% FCS-RPMI 1640. Then the 96 hole cell culturing batten were added with the CTLL cell suspension on the quantity of 100 μl/hole. The supernates were added on the quantity of 100 μl/hole and each sample was added to 3 holes. […] The samples were cultured for 3 hours at 37° C., and then measured the OD at the wavelength 570 nm and 630 nm. […]
compound,measurement,setting,value
O=P1(N(CCCl)CCCl)NCCCO1 (centres unmarked) [cyclophosphane],Stimulating index,spleen cells,13.66 ± 2.28
same,cpm,spleen cells,9922 ± 1145 cpm
same,IL-1,IL-1,44.5 ± 7.7 ng/mL
same,NK,NK cell,23.10 ± 3.66 ^
same,IL-2,IL-2,10.10 ± 3.00 IU/ml

# From US20050220906A1, “Pharmaceutical composition for treating rheumatism and the preparation thereof” (priority 2002, published 2005)
